Key:
Assay in all cases: SILAC RP-ABPP
Assay type in all cases: cell-based
[1] = target: T1, KDM5C Lysinespecific demethylase 5C (P41229) (Homo sapiens, UniProt P41229); details: SILAC H/L, HEK293T
T1 construct: In Situ Labelling of Cells with Hydrazine Probes for MS Experiments; endogenous in cells; host or cells: HEK293T and/or MDA-MB-231
How it was run: (§1)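 Heavy SILAC HEK293T or MDA-MB-231 cells were treated with a clickable hydrazine probe; light cells received the non-clickable analogue (enrichment) or the probe plus 10-fold excess non-clickable competitor (competition). Mixed proteomes underwent CuAAC with 100 μM biotin-azide for 1 h. Heavy:light ratios were taken as median peptide ratios (≥3 peptides) averaged over ≥3 replicates.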

[2] = target: T2, XPNPEP3 Probable XaaPro aminopeptidase 3 (Q9NQH7) (Homo sapiens, UniProt Q9NQH7); details: SILAC H/L, HEK293T
T2 construct: In Situ Labelling of Cells with Hydrazine Probes for MS Experiments; endogenous in cells; host or cells: HEK293T and/or MDA-MB-231
How it was run: as §1

[3] = target: T3, RRM2 Ribonucleosidediphosphate reductase (P31350) (Homo sapiens, UniProt P31350); details: SILAC H/L, HEK293T
T3 construct: In Situ Labelling of Cells with Hydrazine Probes for MS Experiments; endogenous in cells; host or cells: HEK293T and/or MDA-MB-231
How it was run: as §1

[4] = target: T4, BCAT1 Branchedchainaminoacid (P54687) (Homo sapiens, UniProt P54687); details: SILAC H/L, MDA-MB-231
T4 construct: endogenous in cells; host or cells: HEK293T or MDA-MB-231
How it was run: as §1

[5] = target: T5, CYCS Cytochrome c (P99999) (Homo sapiens, UniProt P99999); details: SILAC H/L, HEK293T
T5 construct: In Situ Labelling of Cells with Hydrazine Probes for MS Experiments; endogenous in cells; host or cells: HEK293T and/or MDA-MB-231
How it was run: as §1

[6] = target: T6, NAGA AlphaNacetylgalactosaminidase (P17050) (Homo sapiens, UniProt P17050); details: SILAC H/L, MDA-MB-231
T6 construct: endogenous in cells; host or cells: HEK293T or MDA-MB-231
How it was run: as §1

[7] = target: T7, MMP14 Matrix metalloproteinase14 (P50281) (Homo sapiens, UniProt P50281); details: SILAC H/L, MDA-MB-231
T7 construct: endogenous in cells; host or cells: HEK293T or MDA-MB-231
How it was run: as §1

[8] = target: T8, CMBL Carboxymethylenebutenolidase homolog (Q96DG6) (Homo sapiens, UniProt Q96DG6); details: SILAC H/L, HEK293T
T8 construct: In Situ Labelling of Cells with Hydrazine Probes for MS Experiments; endogenous in cells; host or cells: HEK293T and/or MDA-MB-231
How it was run: as §1

[9] = target: T9, CPD Carboxypeptidase D (O75976) (Homo sapiens, UniProt O75976); details: SILAC H/L, MDA-MB-231
T9 construct: In Situ Labelling of Cells with Hydrazine Probes for MS Experiments; endogenous in cells; host or cells: HEK293T and/or MDA-MB-231
How it was run: as §1

[10] = target: T10, PTGR2 Prostaglandin reductase 2 (Q8N8N7) (Homo sapiens, UniProt Q8N8N7); details: SILAC H/L, MDA-MB-231
T10 construct: endogenous in cells; host or cells: HEK293T or MDA-MB-231
How it was run: as §1

[11] = target: T11, PLOD2 Procollagenlysine, 2oxoglutarate (O00469) (Homo sapiens, UniProt O00469); details: SILAC H/L, MDA-MB-231
T11 construct: endogenous in cells; host or cells: HEK293T or MDA-MB-231
How it was run: as §1

[12] = target: T12, PHF8 Histone lysine demethylase PHF8 (Q9UPP1) (Homo sapiens, UniProt Q9UPP1); details: SILAC H/L, HEK293T
T12 construct: In Situ Labelling of Cells with Hydrazine Probes for MS Experiments; endogenous in cells
How it was run: as §1

[13] = target: T13, HEXB Betahexosaminidase subunit beta (P07686) (Homo sapiens, UniProt P07686); details: SILAC H/L, MDA-MB-231
T13 construct: endogenous in cells; host or cells: HEK293T or MDA-MB-231
How it was run: as §1

NEU1 Sialidase1 (Q99519) = target: T14, NEU1 Sialidase1 (Q99519) (Homo sapiens, UniProt Q99519); details: SILAC H/L, MDA-MB-231
T14 construct: endogenous in cells; host or cells: HEK293T or MDA-MB-231
How it was run: as §1

T12 sequence (Q9UPP1 whole entry): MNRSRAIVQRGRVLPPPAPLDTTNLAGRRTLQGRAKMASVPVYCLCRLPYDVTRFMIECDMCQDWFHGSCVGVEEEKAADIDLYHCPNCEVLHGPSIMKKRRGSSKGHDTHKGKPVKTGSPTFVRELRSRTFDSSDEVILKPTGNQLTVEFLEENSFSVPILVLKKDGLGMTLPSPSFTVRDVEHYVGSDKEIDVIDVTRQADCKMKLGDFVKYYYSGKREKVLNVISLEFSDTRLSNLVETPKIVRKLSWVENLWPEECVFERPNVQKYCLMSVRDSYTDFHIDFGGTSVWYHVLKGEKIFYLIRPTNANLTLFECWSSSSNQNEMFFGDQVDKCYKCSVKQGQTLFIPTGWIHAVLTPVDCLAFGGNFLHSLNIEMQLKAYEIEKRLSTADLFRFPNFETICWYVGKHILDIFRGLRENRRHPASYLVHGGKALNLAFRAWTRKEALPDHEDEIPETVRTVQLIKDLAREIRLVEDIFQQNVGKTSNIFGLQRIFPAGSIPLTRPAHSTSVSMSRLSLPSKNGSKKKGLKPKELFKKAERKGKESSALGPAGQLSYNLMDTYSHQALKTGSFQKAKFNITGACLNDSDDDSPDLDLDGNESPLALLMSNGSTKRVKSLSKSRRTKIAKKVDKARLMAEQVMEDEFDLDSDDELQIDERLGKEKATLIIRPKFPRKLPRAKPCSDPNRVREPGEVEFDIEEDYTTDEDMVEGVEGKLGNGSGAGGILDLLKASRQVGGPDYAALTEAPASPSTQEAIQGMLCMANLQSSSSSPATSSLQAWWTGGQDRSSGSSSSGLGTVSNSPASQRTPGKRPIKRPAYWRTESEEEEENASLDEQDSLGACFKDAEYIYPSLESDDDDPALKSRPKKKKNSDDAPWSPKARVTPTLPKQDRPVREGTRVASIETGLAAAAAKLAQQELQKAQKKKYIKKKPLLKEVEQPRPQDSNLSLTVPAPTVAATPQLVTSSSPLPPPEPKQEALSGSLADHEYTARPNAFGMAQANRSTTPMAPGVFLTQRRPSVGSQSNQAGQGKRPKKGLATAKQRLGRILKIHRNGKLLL
T6 sequence (P17050 18-411): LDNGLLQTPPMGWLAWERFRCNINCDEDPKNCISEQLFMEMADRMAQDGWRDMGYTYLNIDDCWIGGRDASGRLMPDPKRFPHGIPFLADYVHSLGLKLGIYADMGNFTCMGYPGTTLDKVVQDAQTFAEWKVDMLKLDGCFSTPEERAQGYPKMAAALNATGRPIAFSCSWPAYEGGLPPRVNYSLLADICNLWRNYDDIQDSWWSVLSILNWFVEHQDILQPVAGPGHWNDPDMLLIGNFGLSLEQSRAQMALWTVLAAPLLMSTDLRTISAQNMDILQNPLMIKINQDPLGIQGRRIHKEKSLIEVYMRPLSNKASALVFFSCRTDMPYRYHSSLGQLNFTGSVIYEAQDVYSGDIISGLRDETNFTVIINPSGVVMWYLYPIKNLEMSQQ
T11 sequence (O00469 26-737): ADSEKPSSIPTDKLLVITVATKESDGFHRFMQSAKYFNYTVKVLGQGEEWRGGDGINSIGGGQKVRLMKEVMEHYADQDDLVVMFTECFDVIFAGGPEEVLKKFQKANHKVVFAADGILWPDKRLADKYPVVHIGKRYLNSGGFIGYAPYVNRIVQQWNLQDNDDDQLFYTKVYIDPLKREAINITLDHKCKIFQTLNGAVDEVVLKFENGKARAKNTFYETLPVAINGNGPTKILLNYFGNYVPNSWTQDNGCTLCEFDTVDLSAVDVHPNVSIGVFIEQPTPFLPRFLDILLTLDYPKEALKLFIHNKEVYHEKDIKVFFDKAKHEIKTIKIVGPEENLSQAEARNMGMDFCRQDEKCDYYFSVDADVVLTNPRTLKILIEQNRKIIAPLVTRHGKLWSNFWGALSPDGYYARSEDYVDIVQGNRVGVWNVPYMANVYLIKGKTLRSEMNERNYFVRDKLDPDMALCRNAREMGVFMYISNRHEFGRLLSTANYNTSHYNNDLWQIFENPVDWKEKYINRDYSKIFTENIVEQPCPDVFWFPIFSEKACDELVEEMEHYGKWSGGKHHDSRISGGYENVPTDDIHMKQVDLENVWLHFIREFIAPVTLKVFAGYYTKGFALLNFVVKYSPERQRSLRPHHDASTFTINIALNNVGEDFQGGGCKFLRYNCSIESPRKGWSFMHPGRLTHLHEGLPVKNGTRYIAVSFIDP
T10 sequence (Q8N8N7 whole entry): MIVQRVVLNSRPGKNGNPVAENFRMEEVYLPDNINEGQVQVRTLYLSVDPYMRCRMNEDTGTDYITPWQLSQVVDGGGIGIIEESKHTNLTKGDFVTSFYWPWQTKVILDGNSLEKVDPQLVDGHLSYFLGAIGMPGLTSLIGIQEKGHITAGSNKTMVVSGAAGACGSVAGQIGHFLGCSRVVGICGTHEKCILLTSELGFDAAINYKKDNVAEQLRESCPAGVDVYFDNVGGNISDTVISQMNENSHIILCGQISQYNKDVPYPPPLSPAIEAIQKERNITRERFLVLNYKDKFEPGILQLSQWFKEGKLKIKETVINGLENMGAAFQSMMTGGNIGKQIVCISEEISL
T9 sequence (O75976 32-1380): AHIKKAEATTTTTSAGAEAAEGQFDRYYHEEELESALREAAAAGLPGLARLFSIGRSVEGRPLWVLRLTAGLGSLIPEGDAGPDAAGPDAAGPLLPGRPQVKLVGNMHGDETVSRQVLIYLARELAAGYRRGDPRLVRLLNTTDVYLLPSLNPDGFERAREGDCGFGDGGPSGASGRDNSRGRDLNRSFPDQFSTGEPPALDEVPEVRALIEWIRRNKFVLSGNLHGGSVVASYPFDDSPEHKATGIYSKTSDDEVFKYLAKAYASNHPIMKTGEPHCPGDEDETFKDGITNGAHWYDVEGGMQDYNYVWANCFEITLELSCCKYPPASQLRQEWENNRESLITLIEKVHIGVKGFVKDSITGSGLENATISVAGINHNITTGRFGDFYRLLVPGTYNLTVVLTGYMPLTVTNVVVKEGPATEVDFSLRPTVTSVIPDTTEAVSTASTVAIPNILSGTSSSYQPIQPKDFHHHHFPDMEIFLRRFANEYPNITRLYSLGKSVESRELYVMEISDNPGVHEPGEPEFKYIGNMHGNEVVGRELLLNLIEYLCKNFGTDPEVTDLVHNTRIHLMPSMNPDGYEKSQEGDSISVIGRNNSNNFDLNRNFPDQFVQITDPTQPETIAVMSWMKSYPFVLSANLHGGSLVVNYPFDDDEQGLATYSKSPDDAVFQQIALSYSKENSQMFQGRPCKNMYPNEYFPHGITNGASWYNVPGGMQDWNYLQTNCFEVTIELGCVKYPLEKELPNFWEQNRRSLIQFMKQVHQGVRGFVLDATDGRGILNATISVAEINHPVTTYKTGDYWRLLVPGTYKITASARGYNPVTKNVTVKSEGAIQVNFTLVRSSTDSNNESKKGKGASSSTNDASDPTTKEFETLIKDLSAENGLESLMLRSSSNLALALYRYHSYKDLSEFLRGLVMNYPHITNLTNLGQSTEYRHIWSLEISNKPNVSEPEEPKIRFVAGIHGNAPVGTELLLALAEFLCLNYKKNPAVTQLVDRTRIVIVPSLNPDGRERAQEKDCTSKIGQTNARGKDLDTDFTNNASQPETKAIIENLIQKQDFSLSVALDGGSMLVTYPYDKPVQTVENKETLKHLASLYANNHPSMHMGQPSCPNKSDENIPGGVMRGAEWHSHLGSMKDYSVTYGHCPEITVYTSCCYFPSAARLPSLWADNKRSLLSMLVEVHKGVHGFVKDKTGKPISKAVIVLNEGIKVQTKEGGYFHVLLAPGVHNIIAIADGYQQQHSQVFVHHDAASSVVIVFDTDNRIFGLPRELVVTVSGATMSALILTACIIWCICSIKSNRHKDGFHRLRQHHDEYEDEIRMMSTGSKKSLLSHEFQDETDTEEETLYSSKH
T5 sequence (P99999 whole entry): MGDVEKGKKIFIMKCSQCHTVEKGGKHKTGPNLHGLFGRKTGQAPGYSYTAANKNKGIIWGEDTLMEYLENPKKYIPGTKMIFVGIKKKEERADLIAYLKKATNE
T4 sequence (P54687 whole entry): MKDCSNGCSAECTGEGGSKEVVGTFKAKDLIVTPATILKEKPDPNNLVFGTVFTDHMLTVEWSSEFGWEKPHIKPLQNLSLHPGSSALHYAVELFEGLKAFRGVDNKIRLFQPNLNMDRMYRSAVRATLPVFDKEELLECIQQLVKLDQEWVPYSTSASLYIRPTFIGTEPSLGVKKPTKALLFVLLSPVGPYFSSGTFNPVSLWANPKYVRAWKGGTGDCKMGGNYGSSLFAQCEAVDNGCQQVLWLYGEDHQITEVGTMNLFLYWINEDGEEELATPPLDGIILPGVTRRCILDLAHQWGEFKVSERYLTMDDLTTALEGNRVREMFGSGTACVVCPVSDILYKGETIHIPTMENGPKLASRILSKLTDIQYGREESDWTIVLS
T13 sequence (P07686 122-556, one chain of several): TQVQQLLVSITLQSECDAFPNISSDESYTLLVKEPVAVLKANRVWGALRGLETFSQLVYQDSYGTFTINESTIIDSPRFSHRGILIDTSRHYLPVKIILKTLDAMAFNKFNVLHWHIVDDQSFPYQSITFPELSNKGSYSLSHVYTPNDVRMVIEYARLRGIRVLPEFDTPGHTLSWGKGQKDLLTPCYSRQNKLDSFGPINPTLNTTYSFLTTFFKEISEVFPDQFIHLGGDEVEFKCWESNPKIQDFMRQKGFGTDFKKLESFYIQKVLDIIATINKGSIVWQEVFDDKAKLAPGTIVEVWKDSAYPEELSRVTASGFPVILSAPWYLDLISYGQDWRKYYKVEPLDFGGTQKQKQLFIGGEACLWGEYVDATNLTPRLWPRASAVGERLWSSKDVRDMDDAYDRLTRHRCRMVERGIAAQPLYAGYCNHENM

enrichment ratioavg ([1]; probe 2 1 mM 0.5 h vs probe 4): 19
competition ratioavg ([1]; probe 2 vs probe 2+10x probe 4): 3
enrichment ratioavg ([2]; probe 2 1 mM 0.5 h vs probe 4): 20
competition ratioavg ([2]; probe 2 vs probe 2+10x probe 4): 4
enrichment ratioavg ([3]; probe 2 1 mM 0.5 h vs probe 4): 13
competition ratioavg ([3]; probe 2 vs probe 2+10x probe 4): 1
enrichment ratioavg ([4]; probe 2 1 mM 0.5 h vs probe 4): 20
competition ratioavg ([4]; probe 2 vs probe 2+10x probe 4): 2
enrichment ratioavg ([5]; probe 2 1 mM 0.5 h vs probe 4): 7
competition ratioavg ([5]; probe 2 vs probe 2+10x probe 4): 0
enrichment ratioavg ([6]; probe 2 1 mM 0.5 h vs probe 4): 17
competition ratioavg ([6]; probe 2 vs probe 2+10x probe 4): 3
enrichment ratioavg ([7]; probe 2 1 mM 0.5 h vs probe 4): 10
competition ratioavg ([7]; probe 2 vs probe 2+10x probe 4): 3
enrichment ratioavg ([8]; probe 2 1 mM 0.5 h vs probe 4): 18
competition ratioavg ([8]; probe 2 vs probe 2+10x probe 4): 3
enrichment ratioavg ([9]; probe 2 1 mM 0.5 h vs probe 4): 20
competition ratioavg ([9]; probe 2 vs probe 2+10x probe 4): 15
enrichment ratioavg ([10]; probe 2 1 mM 0.5 h vs probe 4): 15
competition ratioavg ([10]; probe 2 vs probe 2+10x probe 4): 1
enrichment ratioavg ([11]; probe 2 1 mM 0.5 h vs probe 4): 6
competition ratioavg ([11]; probe 2 vs probe 2+10x probe 4): 2
enrichment ratioavg ([12]; probe 2 1 mM 0.5 h vs probe 4): 20
competition ratioavg ([12]; probe 2 vs probe 2+10x probe 4): 15
enrichment ratioavg ([13]; probe 2 1 mM 0.5 h vs probe 4): 11
competition ratioavg ([13]; probe 2 vs probe 2+10x probe 4): 3
enrichment ratioavg (NEU1 Sialidase1 (Q99519); probe 2 1 mM 0.5 h vs probe 4): 5
competition ratioavg (NEU1 Sialidase1 (Q99519); probe 2 vs probe 2+10x probe 4): 3
SMILES: C#CCCNC(=O)c1ccc(NN)cc1.Cl [probe 2, N-(but-3-yn-1-yl)-4-hydrazinylbenzamide hydrochloride]
